This note sets out measurements from patent US20150024008A1, “Methods and Compositions Involving Induced Senescent Cells for Cancer Treatment” (THE UNIVERSITY OF CHICAGO, priority 2011, published 2015).

In test [1] the test system is MCF7 Tet-On GFP-IBD human breast cancer cell line. The test can be described thus: GFP-53BP1 IRIF persistence, senescence and growth in MCF7 Tet-On GFP-IBD cells. Conditions: for Senescence inducing condition 1 (compound concentration combined with IR) / Senescence inducing condition 2 (compound concentration combined with IR): MCF7 cell line; for persistence of GFP-53BP1 foci (IRIF) / accelerated senescence: combined with irradiation. In kind it is cell-based. Here is the method: To examine the effect of glucose metabolism on IRIF persistence in living cells, we exploited our previously described IRIF reporter consisting of GFP fused to the 53BP1 IRIF binding domain, expressed under tetracycline-inducible control. MCF7^Tet-On GFP-IBD cells were seeded at 3×10^5 per Fluorodish (World Precision Instruments, Inc.) in high-glucose (4.5 g/L) DMEM (Invitrogen) media supplemented with 10% Tet system-approved fetal bovine serum (Clontech) and 1 μg/mL doxycycline (Sigma). Next day media was exchanged for either high-glucose (4.5 g/L) or low-glucose (1 g/L) DMEM with 10% FBS and 1 μg/mL doxycycline. […] Cells were fixed at 3 h and 24 h for IRIF imaging and at day 5 for SA-βGal staining. Images were captured on Zeiss Axiovert 200M and a Hammatsu Orca ER FireWire digital monochrome (IRIF) or Zeiss Axiocam color digital camera (SA-βGal staining) controlled by OpenLab software.
To investigate what step of glycolysis is critical for improvement of DNA repair we used set of well established glycolysis inhibitors including glucose transporter Glut1 inhibitor, HXKi, GAPHi, PKi, LDHi. […] Given that elevated glycolysis predispose tumor cells for therapeutic resistance similar experiment has been performed on IR resistant PANC02 mouse pancreatic and U87 human glioma cell lines.

The subject of test [2] is PANC02 mouse pancreatic cell line. Kind of test: GFP-53BP1 IRIF persistence in PANC02 Tet-On GFP-IBD cells. In kind it is cell-based. Conditions: 24 hours after 6 Gy. Here is the method: (§1) PANC02^Tet-On GFP-IBD and U87^Tet-On GFP-IBD cell lines have been developed. Cells were seeded at 3×10^5 per Fluorodish in media supplemented with 1 μg/mL doxycycline following pretreatment for 1 h with glycolysis inhibitors before 6 Gy irradiation at 48 h. Phloretin Glut1i—Glucose transporter 1 inhibitor 100 μM (Sigma), HXi—Hexokinase inhibitorII 50 μM (Calbiochem), PKi—Pyruvate kinase inhibitor oxalate 50 μM (Sigma), LDHi—Lactate dehydrogenase inhibitor, oxamate 1 mM (Sigma).

Test [3] concerns U87 human glioma cell line. The test can be described thus: GFP-53BP1 IRIF persistence in U87 Tet-On GFP-IBD cells. In kind it is cell-based. The following applies: 24 hours after 6 Gy. Here is the method:
as §1

In test [4] the test system is Nu61 head and neck squamous carcinoma xenografts. The test can be described thus: SA-βGal in Nu61 tumor xenografts. In kind it is in vivo, mouse. Here is the method: Head and neck squamous carcinomas cell line Nu61^Tet-On GFP-IBD with IRIF live imaging reporter have been developed. Female athymic nude mice underwent s.c. injection of 1×10^7 Nu61 Tet-OnGFP-IBD cells in 100 μL of PBS. Nine days later, mice received 25 mg/kg veliparib (ChemieTek) by oral gavage 48 hours before and 72 hours after a single dose of 6 Gy. […] Tumors were excised and frozen in liquid nitrogen for subsequent analysis. Frozen sections were analyzed for SA-βGal activity. The senescence-associated β-galactosidase (SA-βGal) assay was conducted as described before. Images were captured on a Zeiss Axiovert 200M and Zeiss Axiocam color digital camera controlled by OpenLab software with a ×20 objective.

Where [5] appears, read: chemotherapy agent, no irradiation stated.

On to `O=C(O)C[C@H](O)C[C@H](O)/C=C/c1c(C2CC2)nc2ccccc2c1-c1ccc(F)cc1` [Pitavastatin], for which the “Senescence inducing condition 1 (compound concentration combined with IR)” value in test [1] (compound + 6 Gy) came out at 10 μM + 6 Gy.

As for oxalate [PKi], the IRIF persistence result in test [2] and in test [3] was “markedly increased IRIF persistence” in each case. `O=CC[C@@H](O)[C@H](O)[C@H](O)CO` [2DG, 2-deoxy-D-glucose]: the “persistence of GFP-53BP1 foci (IRIF)” value in test [1] is “induced persistence of GFP-53BP1 foci”. In addition, the “SA-βGal induction in tumor” value in test [4] (irradiated tumor treated with 2DG and veliparib) is listed as “Strongest induction of SA-βGal”. For the same molecule, in test [4] (irradiation combined with 2DG), the “SA-βGal positive cells in tumor” value is given as “induced numerous cells stained positive for SA-βGal”. Turning to `CN(C)C(=N)N=C(N)N` [metformin], in test [1], the accelerated senescence entry is recorded as “promoted accelerated senescence” and the “persistence of GFP-53BP1 foci (IRIF)” value was “induced persistence of GFP-53BP1 foci after irradiation”. On to `CC/C(=C(\c1ccccc1)c1ccc(OCCN(C)C)cc1)c1ccccc1` [Tamoxifen], for which, in test [1], the accelerated senescence entry was “promoted accelerated senescence” and the “persistence of GFP-53BP1 foci (IRIF)” value is “induced persistence of GFP-53BP1 foci after irradiation”. For the molecule `O=C(O)C(Cl)Cl` [dichloroacetic acid (DCA), dichloroacetic acid], in test [1], the accelerated senescence result is “promoted accelerated senescence” and the “persistence of GFP-53BP1 foci (IRIF)” value is on record as “induced persistence of GFP-53BP1 foci following irradiation”. Turning to `CN(C/C=C/C#CC(C)(C)C)Cc1cccc2ccccc12` [Terbinafine], the “Senescence inducing condition 1 (compound concentration combined with IR)” value in test [1] (compound + 5 Gy) is reported as 2.5 μM + 5 Gy. Turning to `O=c1n(CCCN2CCN(c3cccc(Cl)c3)CC2)nc2ccccn12` [Trazodone], in test [1] (compound + 6 Gy), the “Senescence inducing condition 2 (compound concentration combined with IR)” value stood at 10 μM + 6 Gy. `COc1ccc(C2CNC(=O)C2)cc1OC1CCCC1` (stereo not shown) [Rolipram]: the “Senescence inducing condition 1 (compound concentration combined with IR)” value in test [1] (compound + 6 Gy) is on record as 10 μM + 6 Gy. As to `CC1=C(C(=O)O)N2C(=O)[C@@H](NC(=O)[C@H](N)c3ccccc3)[C@H]2SC1` [Cephalexin], the “Senescence inducing condition 2 (compound concentration combined with IR)” value in test [1] (compound + 6 Gy) worked out at 10 μM + 6 Gy.

Regarding `c1cc(-c2cnn3cc(-c4ccc(OCCN5CCCCC5)cc4)cnc23)ccn1` [compound C], in test [1], the accelerated senescence result is “promoted accelerated senescence” and the “persistence of GFP-53BP1 foci (IRIF)” value is given as “induced persistence of GFP-53BP1 foci after irradiation”. In the case of `Nc1nc2ccc(Cl)cc2c2nc(-c3ccco3)nn12` [CGS15943], the “Senescence inducing condition 2 (compound concentration combined with IR)” value in test [1] (compound + 5 Gy) is given as 0.05 μM + 5 Gy^. As to `O=c1[nH]cc(F)c(=O)[nH]1` [Fluorouracil (5-FU), Fluorouracil], in test [1], the accelerated senescence entry is listed as “accelerates senescence” and the “persistence of GFP-53BP1 foci (IRIF)” value is listed as “enhances IRIF persistence”. As to `O=c1c(O)c(-c2ccc(O)c(O)c2)oc2cc(O)cc(O)c12` [Quercetin], the “Senescence inducing condition 2 (compound concentration combined with IR)” value in test [1] (compound + 5 Gy) turned out to be 2.5 μM + 5 Gy. Turning to `N.N.[Cl][Pt][Cl]` [Cisplatin], in test [1] (setting [5]), the “persistence of GFP-53BP1 foci” value is on record as “induced persistence of GFP-53BP1 foci”; the senescence and growth result was “accelerated senescence and growth suppression”. For `O=C(CCc1ccc(O)cc1)c1c(O)cc(O)cc1O` [phloretin], the accelerated senescence result in test [1] was “promoted accelerated senescence”. The “persistence of GFP-53BP1 foci (IRIF)” value in test [1] is recorded as “induced persistence of GFP-53BP1 foci following irradiation”. Further, the IRIF persistence result in test [2] and in test [3] was “markedly increased IRIF persistence” each time. As to `CN1CCC(=C2c3ccccc3CC(=O)c3sccc32)CC1` [Ketotifen], the “Senescence inducing condition 2 (compound concentration combined with IR)” value in test [1] (compound + 5 Gy) came out at 5 μM + 5 Gy. With `COC(=O)C1=C(C)NC(C)=C(C(=O)OCC(C)C)C1c1ccccc1[N+](=O)[O-]` (stereo not shown) [Nisoldipine], the “Senescence inducing condition 2 (compound concentration combined with IR)” value in test [1] (compound + 6 Gy) was found to be 10 μM + 6 Gy. Consider `O=C(CCCCCCC(=O)Nc1ccccc1)NO` [SAHA, suberoylanilide hydroxamic acid], for which, in test [1], the “persistence of GFP-53BP1 foci (IRIF)” value was “enhance radiation induced persistence of GFP-53BP1 foci”.

`CN(C)CCC=C1c2ccccc2COc2ccccc21` [Doxepin]: in test [1] (compound + 5 Gy), the “Senescence inducing condition 2 (compound concentration combined with IR)” value came to 2.5 μM + 5 Gy. Take `CCCCCCCCCCCCCCCc1cccc(O)c1C(=O)O` [anacardic acid]: the “persistence of GFP-53BP1 foci (IRIF)” value in test [1] is given as “enhance radiation induced persistence of GFP-53BP1 foci”. As for `N[C@@H](C(=O)N[C@@H]1C(=O)N2C(C(=O)O)=C(Cl)CS[C@H]12)c1ccccc1` [Cefaclor], the “Senescence inducing condition 1 (compound concentration combined with IR)” value in test [1] (compound + 6 Gy) is 25 μM + 6 Gy.
